According to paper PMC8820820, “Feasibility and safety of targeting mitochondria for cancer therapy – preclinical characterization of gamitrinib, a first-in-class, mitochondriaL-targeted small molecule Hsp90 inhibitor” (Cancer Biology & Therapy, 2022):
Where “and” joins values, the source holds several entries; their conditions need not be identical. Identical values can stand only once. Entries after “also recorded” stand apart in the source; their conditions may differ.

What was measured:
[1] = Gamitrinib pharmacokinetics in rat plasma, single IV dose; format: in vivo, Sprague-Dawley rats
Description: Sprague-Dawley rats (n = 3) were administered with a single intravenous (IV) dose of 1 mL Gamitrinib (5 mg/kg) formulated as described above without added microfluidization. Blood samples were collected via lateral tail vein using K2EDTA as an anticoagulant at 0.083, 0.25, 0.5, 1, 2, 4, and 24 h post-dose, chilled on ice, and centrifuged at 5000 rpm for 10 min. Aliquots (0.2 mL) of each plasma sample were stored frozen at −20°C. For analysis, 50 µL aliquots of the study samples were mixed with 50 µL of ACN/H2O (50:50), extracted by protein precipitation using ACN containing the internal standard Gamitrinib-d15 (100 ng/mL), and the aliquots of the supernatant were mixed with deionized water for Gamitrinib determination. Batch samples under analysis included a calibration curve, a matrix blank (blank rat plasma), a reagent blank, a control zero (blank rat plasma spiked with internal standard), and duplicate QC samples at three concentration levels (low, medium, and high) in addition to the study samples. Within each batch, the study samples were bracketed by calibration standards or QC samples. The lowest calibration standard served to evaluate system suitability at the beginning of each batch. […] Overall, the concentration of Gamitrinib was measured in 21 rat plasma samples in 1 analytical batch using LC-MS/MS data acquisition on a Shimadzu Nexera LC system coupled with an AB Sciex Triple Quad 5500 mass spectrometer. Chromatograms were integrated using Analyst 1.6.2 software. A weighted (1/x^2, x = concentration) linear regression was used to generate the calibration curve for Gamitrinib. […] The mean, standard deviation, precision, accuracy, and assay variability were calculated using Microsoft Excel.

HCN4 = target: T1, HCN4 (Homo sapiens, UniProt Q9Y3Q4); assay: Ion channel screening; format: cell-based; conditions: 10 µM
T1 sequence (Q9Y3Q4 1-1203): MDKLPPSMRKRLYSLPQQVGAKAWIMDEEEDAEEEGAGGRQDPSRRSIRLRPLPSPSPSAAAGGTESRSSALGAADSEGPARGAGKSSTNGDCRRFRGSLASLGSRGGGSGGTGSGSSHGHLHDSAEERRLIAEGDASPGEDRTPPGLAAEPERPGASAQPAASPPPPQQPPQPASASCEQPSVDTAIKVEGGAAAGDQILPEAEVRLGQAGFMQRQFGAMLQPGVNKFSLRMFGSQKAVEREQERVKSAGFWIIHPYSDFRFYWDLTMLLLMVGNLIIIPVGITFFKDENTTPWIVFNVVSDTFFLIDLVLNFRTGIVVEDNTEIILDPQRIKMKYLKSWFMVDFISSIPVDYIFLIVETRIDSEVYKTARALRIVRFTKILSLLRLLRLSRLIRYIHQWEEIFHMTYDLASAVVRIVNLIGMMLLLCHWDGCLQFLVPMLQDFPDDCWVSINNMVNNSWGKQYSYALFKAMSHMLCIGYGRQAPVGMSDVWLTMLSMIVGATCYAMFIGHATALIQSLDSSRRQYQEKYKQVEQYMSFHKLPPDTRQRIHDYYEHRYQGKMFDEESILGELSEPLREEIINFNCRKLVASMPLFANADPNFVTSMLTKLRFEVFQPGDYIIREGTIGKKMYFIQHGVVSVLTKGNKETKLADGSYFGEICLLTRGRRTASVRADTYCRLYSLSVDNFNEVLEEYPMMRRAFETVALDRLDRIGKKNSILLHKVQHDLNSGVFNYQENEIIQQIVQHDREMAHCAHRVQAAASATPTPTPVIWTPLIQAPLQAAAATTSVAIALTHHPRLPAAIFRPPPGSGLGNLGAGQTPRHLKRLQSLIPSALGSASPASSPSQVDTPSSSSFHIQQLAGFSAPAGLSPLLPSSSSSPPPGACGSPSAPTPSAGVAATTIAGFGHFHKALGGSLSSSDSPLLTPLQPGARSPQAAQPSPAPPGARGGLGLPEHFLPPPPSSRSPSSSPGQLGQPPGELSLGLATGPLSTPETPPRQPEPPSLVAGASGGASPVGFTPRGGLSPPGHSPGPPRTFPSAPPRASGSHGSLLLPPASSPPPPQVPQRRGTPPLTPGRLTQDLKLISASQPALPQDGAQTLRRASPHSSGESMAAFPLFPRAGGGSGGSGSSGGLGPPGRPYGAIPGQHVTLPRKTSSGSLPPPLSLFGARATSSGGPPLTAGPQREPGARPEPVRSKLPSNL

## COC1C=CC=C(C)C(=O)NC2=CC(=O)C(NCCCCCC[P+](c3ccccc3)(c3ccccc3)c3ccccc3)=C(CC(C)CC(OC)C(O)C(C)C=C(C)C1OC(N)=O)C2=O.F[P-](F)(F)(F)(F)F (stereo not drawn) [Gamitrinib]
[1]; 5 mg/kg IV, Mean (n = 3)
  AUCINF: 976.002 ng·h/mL
  AUClast (AUC0-t): 783.1 ± 71.3 ng·h/mL and 783.199 ng·h/mL
  CL: 85.6 ± 5.8 mL/min/kg and 85.65 ± 5.85 mL/min/kg and 85.656 mL/min/kg
  MRT: 5.492 h
  Vss: 65.471 L/kg
  Vz: 91.159 L/kg
  t1/2: 12.2 ± 1.55 h and 12.250 h
[1]; 5 mg/kg IV, Rat 1
  AUCINF: 1051.752 ng·h/mL
  AUClast: 851.441 ng·h/mL
  CL: 79.233 mL/min/kg
  Cmax: 1153.712 ng/mL
  MRT: 5.539 h
  Vss: 58.230 L/kg
  Vz: 79.715 L/kg
  t1/2: 11.623 h
[1]; 5 mg/kg IV, Rat 2
  AUCINF: 957.472 ng·h/mL
  AUClast: 789.045 ng·h/mL
  CL: 87.035 mL/min/kg
  Cmax: 829.668 ng/mL
  MRT: 5.411 h
  Vss: 60.052 L/kg
  Vz: 83.678 L/kg
  t1/2: 11.107 h
[1]; 5 mg/kg IV, Rat 3
  AUCINF: 918.784 ng·h/mL
  AUClast: 709.112 ng·h/mL
  CL: 90.700 mL/min/kg
  Cmax: 1544.041 ng/mL
  MRT: 5.524 h
  Vss: 78.131 L/kg
  Vz: 110.085 L/kg
  t1/2: 14.022 h
[1]; 5 mg/kg IV, animal 1, 5 min
  Gamitrinib plasma concentration: 622.199 ng/mL
[1]; 5 mg/kg IV, animal 1, 15 min
  Gamitrinib plasma concentration: 180.951 ng/mL
[1]; 5 mg/kg IV, animal 1, 30 min
  Gamitrinib plasma concentration: 106.381 ng/mL
[1]; 5 mg/kg IV, animal 1, 60 min
  Gamitrinib plasma concentration: 71.445 ng/mL
[1]; 5 mg/kg IV, animal 1, 120 min
  Gamitrinib plasma concentration: 46.657 ng/mL
[1]; 5 mg/kg IV, animal 1, 240 min
  Gamitrinib plasma concentration: 36.816 ng/mL
[1]; 5 mg/kg IV, animal 1, 1440 min
  Gamitrinib plasma concentration: 11.946 ng/mL
[1]; 5 mg/kg IV, animal 2, 5 min
  Gamitrinib plasma concentration: 526.229 ng/mL
[1]; 5 mg/kg IV, animal 2, 15 min
  Gamitrinib plasma concentration: 211.686 ng/mL
[1]; 5 mg/kg IV, animal 2, 30 min
  Gamitrinib plasma concentration: 114.230 ng/mL
[1]; 5 mg/kg IV, animal 2, 60 min
  Gamitrinib plasma concentration: 65.903 ng/mL
[1]; 5 mg/kg IV, animal 2, 120 min
  Gamitrinib plasma concentration: 43.125 ng/mL
[1]; 5 mg/kg IV, animal 2, 240 min
  Gamitrinib plasma concentration: 34.776 ng/mL
[1]; 5 mg/kg IV, animal 2, 1440 min
  Gamitrinib plasma concentration: 10.511 ng/mL
[1]; 5 mg/kg IV, animal 3, 5 min
  Gamitrinib plasma concentration: 674.432 ng/mL
[1]; 5 mg/kg IV, animal 3, 15 min
  Gamitrinib plasma concentration: 128.663 ng/mL
[1]; 5 mg/kg IV, animal 3, 30 min
  Gamitrinib plasma concentration: 67.204 ng/mL
[1]; 5 mg/kg IV, animal 3, 60 min
  Gamitrinib plasma concentration: 55.991 ng/mL
[1]; 5 mg/kg IV, animal 3, 120 min
  Gamitrinib plasma concentration: 29.914 ng/mL
[1]; 5 mg/kg IV, animal 3, 240 min
  Gamitrinib plasma concentration: 28.905 ng/mL
[1]; 5 mg/kg IV, animal 3, 1440 min
  Gamitrinib plasma concentration: 10.365 ng/mL
[1]; rats, IV Gamitrinib 5 mg/kg, plasma
  generation of metabolite 17-AG: without generation of 17-AG; also recorded: did not generate detectable levels; also recorded: no generation of 17-AG
HCN4
  inhibition of HCN4 currents: −0.2 ± 3.7%
